{
  "source": "patent US20230072421A1",
  "about": "“TARGETED RADIOPHARMACEUTICALS FOR THE DIAGNOSIS AND TREATMENT OF PROSTATE CANCER” (Bayer AS, priority 2019, published 2023)",
  "assay": "Biodistribution study in LNCaP tumor-bearing mice (Th227 counted in organs)",
  "format": "in vivo, SCID mice",
  "procedure,_shortened": "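SCID mice bearing testosterone pellets and subcutaneous LNCaP flank tumors (~50 mm^2) received a single intravenous dose of the radioactive compound. At set time points, n=3 animals were sacrificed, and organs were removed, weighed and counted for Th227 on a Germanium detector.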",
  "key": {"[1]": {"conditions": "0.25 h, 500 kBq/kg, study b2999"}},
  "data": [
    {"compound": "O=C([O-])CN1CCN(CC(=O)[O-])CCN(CC(=O)NCC2CCC(C(=O)NC(Cc3ccc4ccccc4c3)C(=O)NCCCCC(NC(=O)NC(CCC(=O)O)C(=O)O)C(=O)O)CC2)CCN(CC(=O)[O-])CC1.[227Th+4]", "note": "[Example 1-B-227Th, [^227Th]Thorium (3S,10S,14S)-3-[(naphthalen-2-yl)methyl]-1,4,12-trioxo-1-{(1r,4S)-4-[(2-{4,7,10-tris[(carboxy-kappaO)methyl]-1,4,7,10-tetraazacyclododecan-1-yl-kappa^4N^1,N^4,N^7,N^10}acetamido)methyl]cyclohexyl}-2,5,11,13-tetraazahexadecane-10,14,16-tricarboxylate]", "values": [
      {"measurement": "Th-227 in Blood", "setting": "[1]", "value": 1.68, "unit": "% ID Th-227/g organ"},
      {"measurement": "Th-227 in Femur and tibia", "setting": "[1]", "value": 1.31, "unit": "% ID Th-227/g organ"},
      {"measurement": "Th-227 in Kidneys", "setting": "[1]", "value": 114.94, "unit": "% ID Th-227/g organ"},
      {"measurement": "Th-227 in Liver", "setting": "[1]", "value": 0.92, "unit": "% ID Th-227/g organ"},
      {"measurement": "Th-227 in Salivary gland", "setting": "[1]", "value": 10.22, "unit": "% ID Th-227/g organ"},
      {"measurement": "Th-227 in Spleen", "setting": "[1]", "value": 6.51, "unit": "% ID Th-227/g organ"},
      {"measurement": "Th-227 in Tumor", "setting": "[1]", "value": 8.41, "unit": "% ID Th-227/g organ"},
      {"measurement": "Th-227 in prostate", "setting": "[1]", "value": 8.53, "unit": "% ID Th-227/g organ"},
      {"measurement": "Th-227 in Blood", "setting": "0.25 h, 1500 kBq/kg", "value": 6.68, "unit": "% ID Th-227/g organ"},
      {"measurement": "Th-227 in Liver", "setting": "0.25 h, 1500 kBq/kg", "value": 2.01, "unit": "% ID Th-227/g organ"},
      {"measurement": "Th-227 in Spleen", "setting": "0.25 h, 1500 kBq/kg", "value": 11.41, "unit": "% ID Th-227/g organ"},
      {"measurement": "Th-227 in Tumor", "setting": "0.25 h, 1500 kBq/kg", "value": 6.89, "unit": "% ID Th-227/g organ"},
      {"measurement": "Th-227 in bone", "setting": "0.25 h, 1500 kBq/kg", "value": 2.42, "unit": "% ID Th-227/g organ"},
      {"measurement": "Th-227 in brain", "setting": "0.25 h, 1500 kBq/kg", "value": 0.27, "unit": "% ID Th-227/g organ"},
      {"measurement": "Th-227 in kidney", "setting": "0.25 h, 1500 kBq/kg", "value": 36.39, "unit": "% ID Th-227/g organ"},
      {"measurement": "Th-227 in large intestine", "setting": "0.25 h, 1500 kBq/kg", "value": 1.08, "unit": "% ID Th-227/g organ"},
      {"measurement": "Th-227 in lung", "setting": "0.25 h, 1500 kBq/kg", "value": 4.42, "unit": "% ID Th-227/g organ"},
      {"measurement": "Th-227 in muscle", "setting": "0.25 h, 1500 kBq/kg", "value": 1.06, "unit": "% ID Th-227/g organ"},
      {"measurement": "Th-227 in prostate", "setting": "0.25 h, 1500 kBq/kg", "value": 7.80, "unit": "% ID Th-227/g organ"},
      {"measurement": "Th-227 in salivary glands", "setting": "0.25 h, 1500 kBq/kg", "value": 2.81, "unit": "% ID Th-227/g organ"},
      {"measurement": "Th-227 in small intestine", "setting": "0.25 h, 1500 kBq/kg", "value": 1.14, "unit": "% ID Th-227/g organ"},
      {"measurement": "Th-227 in Blood", "setting": "1 hr, 500 kBq/kg, study b2999", "value": 0.37, "unit": "% ID Th-227/g organ"},
      {"measurement": "Th-227 in Femur and tibia", "setting": "1 hr, 500 kBq/kg, study b2999", "value": 0.78, "unit": "% ID Th-227/g organ"},
      {"measurement": "Th-227 in Kidneys", "setting": "1 hr, 500 kBq/kg, study b2999", "value": 150.81, "unit": "% ID Th-227/g organ"},
      {"measurement": "Th-227 in Liver", "setting": "1 hr, 500 kBq/kg, study b2999", "value": 0.41, "unit": "% ID Th-227/g organ"},
      {"measurement": "Th-227 in Salivary gland", "setting": "1 hr, 500 kBq/kg, study b2999", "value": 17.15, "unit": "% ID Th-227/g organ"},
      {"measurement": "Th-227 in Spleen", "setting": "1 hr, 500 kBq/kg, study b2999", "value": 6.04, "unit": "% ID Th-227/g organ"},
      {"measurement": "Th-227 in Tumor", "setting": "1 hr, 500 kBq/kg, study b2999", "value": 10.87, "unit": "% ID Th-227/g organ"},
      {"measurement": "Th-227 in prostate", "setting": "1 hr, 500 kBq/kg, study b2999", "value": 9.05, "unit": "% ID Th-227/g organ"},
      {"measurement": "Th-227 in Blood", "setting": "1 hr, 1500 kBq/kg", "value": 3.85, "unit": "% ID Th-227/g organ"},
      {"measurement": "Th-227 in Liver", "setting": "1 hr, 1500 kBq/kg", "value": 1.99, "unit": "% ID Th-227/g organ"},
      {"measurement": "Th-227 in Spleen", "setting": "1 hr, 1500 kBq/kg", "value": 9.16, "unit": "% ID Th-227/g organ"},
      {"measurement": "Th-227 in Tumor", "setting": "1 hr, 1500 kBq/kg", "value": 7.34, "unit": "% ID Th-227/g organ"},
      {"measurement": "Th-227 in bone", "setting": "1 hr, 1500 kBq/kg", "value": 5.16, "unit": "% ID Th-227/g organ"},
      {"measurement": "Th-227 in brain", "setting": "1 hr, 1500 kBq/kg", "value": 0.07, "unit": "% ID Th-227/g organ"},
      {"measurement": "Th-227 in kidney", "setting": "1 hr, 1500 kBq/kg", "value": 38.11, "unit": "% ID Th-227/g organ"},
      {"measurement": "Th-227 in large intestine", "setting": "1 hr, 1500 kBq/kg", "value": 0.57, "unit": "% ID Th-227/g organ"},
      {"measurement": "Th-227 in lung", "setting": "1 hr, 1500 kBq/kg", "value": 2.88, "unit": "% ID Th-227/g organ"},
      {"measurement": "Th-227 in muscle", "setting": "1 hr, 1500 kBq/kg", "value": 0.76, "unit": "% ID Th-227/g organ"},
      {"measurement": "Th-227 in prostate", "setting": "1 hr, 1500 kBq/kg", "value": 1.15, "unit": "% ID Th-227/g organ"},
      {"measurement": "Th-227 in salivary glands", "setting": "1 hr, 1500 kBq/kg", "value": 1.62, "unit": "% ID Th-227/g organ"},
      {"measurement": "Th-227 in small intestine", "setting": "1 hr, 1500 kBq/kg", "value": 0.84, "unit": "% ID Th-227/g organ"},
      {"measurement": "Th-227 in Blood", "setting": "4 hr, 1500 kBq/kg", "value": 1.05, "unit": "% ID Th-227/g organ"},
      {"measurement": "Th-227 in Liver", "setting": "4 hr, 1500 kBq/kg", "value": 1.32, "unit": "% ID Th-227/g organ"},
      {"measurement": "Th-227 in Spleen", "setting": "4 hr, 1500 kBq/kg", "value": 6.17, "unit": "% ID Th-227/g organ"},
      {"measurement": "Th-227 in Tumor", "setting": "4 hr, 1500 kBq/kg", "value": 13.09, "unit": "% ID Th-227/g organ"},
      {"measurement": "Th-227 in bone", "setting": "4 hr, 1500 kBq/kg", "value": 7.25, "unit": "% ID Th-227/g organ"},
      {"measurement": "Th-227 in brain", "setting": "4 hr, 1500 kBq/kg", "value": 0.04, "unit": "% ID Th-227/g organ"},
      {"measurement": "Th-227 in kidney", "setting": "4 hr, 1500 kBq/kg", "value": 32.13, "unit": "% ID Th-227/g organ"},
      {"measurement": "Th-227 in large intestine", "setting": "4 hr, 1500 kBq/kg", "value": 0.76, "unit": "% ID Th-227/g organ"},
      {"measurement": "Th-227 in lung", "setting": "4 hr, 1500 kBq/kg", "value": 1.55, "unit": "% ID Th-227/g organ"},
      {"measurement": "Th-227 in muscle", "setting": "4 hr, 1500 kBq/kg", "value": 0.37, "unit": "% ID Th-227/g organ"},
      {"measurement": "Th-227 in prostate", "setting": "4 hr, 1500 kBq/kg", "value": 1.06, "unit": "% ID Th-227/g organ"},
      {"measurement": "Th-227 in salivary glands", "setting": "4 hr, 1500 kBq/kg", "value": 0.72, "unit": "% ID Th-227/g organ"},
      {"measurement": "Th-227 in small intestine", "setting": "4 hr, 1500 kBq/kg", "value": 0.74, "unit": "% ID Th-227/g organ"},
      {"measurement": "Th-227 in Blood", "setting": "6 hr, 500 kBq/kg, study b2999", "value": 0.06, "unit": "% ID Th-227/g organ"},
      {"measurement": "Th-227 in Femur and tibia", "setting": "6 hr, 500 kBq/kg, study b2999", "value": 0.31, "unit": "% ID Th-227/g organ"},
      {"measurement": "Th-227 in Kidneys", "setting": "6 hr, 500 kBq/kg, study b2999", "value": 67.34, "unit": "% ID Th-227/g organ"},
      {"measurement": "Th-227 in Liver", "setting": "6 hr, 500 kBq/kg, study b2999", "value": 0.19, "unit": "% ID Th-227/g organ"},
      {"measurement": "Th-227 in Salivary gland", "setting": "6 hr, 500 kBq/kg, study b2999", "value": 2.84, "unit": "% ID Th-227/g organ"},
      {"measurement": "Th-227 in Spleen", "setting": "6 hr, 500 kBq/kg, study b2999", "value": 0.73, "unit": "% ID Th-227/g organ"}
    ]}
  ]
}
